# Measured values: ChEMBL document CHEMBL2331474, “Development of a selective peptide macrocycle inhibitor of coagulation factor XII toward the generation of a safe antithrombotic therapy” (J Med Chem, 2013)
# Numbered stars: 1 amine (or outer) side, 2 acyl side, 3 side chain; on linkers, the order of the positions; unused ones are H or OH. Bridge positions count the residues as written; N and C are the ends. Peptide text beside a SMILES is read from it. TBMB = c1c(C[*:1])cc(C[*:3])cc1C[*:2]
# Assays:
# Coagulation factor XII = target: T1, Coagulation factor XII (Homo sapiens, UniProt P00748); assay: Inhibition of human biotinylated beta factor 12a expressed in Escherichia coli TG1 using Z-Gly-Gly-Arg-AMC as substrate assessed as residual activity by fluorometric analysis
# T1 sequence (P00748 whole entry): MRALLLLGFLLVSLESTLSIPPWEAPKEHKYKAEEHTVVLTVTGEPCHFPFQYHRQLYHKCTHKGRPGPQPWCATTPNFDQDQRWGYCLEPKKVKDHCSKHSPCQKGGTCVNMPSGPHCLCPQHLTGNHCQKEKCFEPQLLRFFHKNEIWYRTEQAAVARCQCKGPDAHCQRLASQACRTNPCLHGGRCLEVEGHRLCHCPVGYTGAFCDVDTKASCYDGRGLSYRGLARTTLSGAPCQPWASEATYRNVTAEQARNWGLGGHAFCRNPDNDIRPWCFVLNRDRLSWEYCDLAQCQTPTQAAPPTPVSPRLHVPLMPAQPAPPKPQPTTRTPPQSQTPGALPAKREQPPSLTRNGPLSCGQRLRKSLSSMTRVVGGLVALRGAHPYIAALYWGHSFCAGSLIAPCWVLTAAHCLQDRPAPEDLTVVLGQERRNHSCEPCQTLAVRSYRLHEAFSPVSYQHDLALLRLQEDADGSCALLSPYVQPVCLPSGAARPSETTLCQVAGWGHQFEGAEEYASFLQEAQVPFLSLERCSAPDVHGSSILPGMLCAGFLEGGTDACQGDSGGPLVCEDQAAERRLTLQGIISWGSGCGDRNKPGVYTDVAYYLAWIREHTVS
# Plasminogen = Plasminogen (Homo sapiens, UniProt P00747); assay: Inhibition of human plasmin using H-D-Val-Leu-Lys-AMC as substrate assessed as residual activity by fluorescence plate reader analysis
# [1] = target: Urokinase-type plasminogen activator (Homo sapiens, UniProt P00749); assay: Inhibition of human uPA using Z-Gly-Gly-Arg-AMC as substrate assessed as residual activity by fluorometric analysis
# Coagulation factor XI = Coagulation factor XI (Homo sapiens, UniProt P03951); assay: Inhibition of human coagulation factor 11a using Boc-Phe-Ser-Arg-AMC as substrate assessed as residual activity by fluorometric analysis
# Plasma kallikrein = Plasma kallikrein (Homo sapiens, UniProt P03952); assay: Inhibition of human PK using Z-Phe-Arg-AMC as substrate assessed as residual activity by fluorometric analysis
# [2] = target: Tissue-type plasminogen activator (Homo sapiens, UniProt P00750); assay: Inhibition of human tPA using Z-Gly-Gly-Arg-AMC as substrate assessed as residual activity by fluorometric analysis
# Prothrombin = Prothrombin (Homo sapiens, UniProt P00734); assay: Inhibition of human thrombin using Z-Gly-Gly-Arg-AMC as substrate assessed as residual activity by fluorescence plate reader analysis
# Serine protease 1 = Serine protease 1 (Homo sapiens, UniProt P07477); assay: Inhibition of human trypsin using Z-Gly-Gly-Arg-AMC as substrate assessed as residual activity by fluorescence plate reader analysis
# [3] = target: T2, Coagulation factor XII (Homo sapiens) (UniProt P00748); assay: Inhibition of factor 12 in human plasma assessed as residual activity at 10 uM relative to control
# T2 sequence (whole entry): T1 sequence (P00748 whole entry)
# [4] = target: T2, Coagulation factor XII (Homo sapiens); assay: Inhibition of factor 12 in human plasma assessed as decrease in residual activity relative to control
# [5] = target: T2, Coagulation factor XII (Homo sapiens); assay: Inhibition of factor 12 in human plasma assessed as residual activity at 20 uM relative to control
# [6] = target: T2, Coagulation factor XII (Homo sapiens); assay: Inhibition of factor 12 in human plasma assessed as residual activity at 50 uM relative to control
# [7] = target: T2, Coagulation factor XII (Homo sapiens); assay: Inhibition of factor 12 in human plasma assessed as residual activity at 200 uM relative to control
# Plasma = assay: Inhibition of intrinsic coagulation in human plasma assessed as increase in activated partial […] time; format: functional, cell-free
# [8] = target: T2, Coagulation factor XII (Homo sapiens); assay: Inhibition of factor 12 in human plasma assessed as residual activity at 100 uM relative to control
# [9] = target: T2, Coagulation factor XII (Homo sapiens); assay: Inhibition of factor 12 in human plasma assessed as residual activity at 500 uM relative to control
# Sequence of Plasminogen (P00747 97-580 limits assumed): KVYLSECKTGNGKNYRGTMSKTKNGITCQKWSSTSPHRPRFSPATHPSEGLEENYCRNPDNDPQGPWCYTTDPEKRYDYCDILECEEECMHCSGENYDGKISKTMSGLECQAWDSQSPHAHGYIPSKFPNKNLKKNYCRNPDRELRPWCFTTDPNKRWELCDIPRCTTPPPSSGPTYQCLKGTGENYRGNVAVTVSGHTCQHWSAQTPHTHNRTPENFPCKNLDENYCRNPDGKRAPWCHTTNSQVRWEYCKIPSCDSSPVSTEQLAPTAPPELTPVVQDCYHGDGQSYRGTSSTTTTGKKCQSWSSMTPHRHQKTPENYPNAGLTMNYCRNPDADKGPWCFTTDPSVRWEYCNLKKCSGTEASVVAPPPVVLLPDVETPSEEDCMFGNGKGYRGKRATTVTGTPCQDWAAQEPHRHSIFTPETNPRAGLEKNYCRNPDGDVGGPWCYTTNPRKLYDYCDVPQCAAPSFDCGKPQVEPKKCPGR
# Sequence of Plasminogen (P00747 581-810 limits assumed): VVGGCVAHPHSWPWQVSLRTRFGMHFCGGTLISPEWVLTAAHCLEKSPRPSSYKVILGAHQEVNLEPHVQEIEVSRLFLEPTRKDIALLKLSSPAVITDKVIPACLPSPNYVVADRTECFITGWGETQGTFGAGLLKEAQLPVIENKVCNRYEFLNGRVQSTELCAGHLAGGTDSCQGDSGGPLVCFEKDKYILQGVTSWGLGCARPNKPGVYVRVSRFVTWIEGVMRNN
# Sequence of Serine protease 1 (P07477 whole entry): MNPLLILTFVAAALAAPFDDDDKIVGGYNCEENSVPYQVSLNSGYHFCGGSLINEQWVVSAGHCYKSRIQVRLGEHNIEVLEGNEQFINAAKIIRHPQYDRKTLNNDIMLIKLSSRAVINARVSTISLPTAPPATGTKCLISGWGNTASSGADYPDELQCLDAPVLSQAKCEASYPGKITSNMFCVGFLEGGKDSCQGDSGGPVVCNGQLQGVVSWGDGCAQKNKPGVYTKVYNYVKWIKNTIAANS
# Sequence of Plasma kallikrein (P03952 20-390 limits assumed): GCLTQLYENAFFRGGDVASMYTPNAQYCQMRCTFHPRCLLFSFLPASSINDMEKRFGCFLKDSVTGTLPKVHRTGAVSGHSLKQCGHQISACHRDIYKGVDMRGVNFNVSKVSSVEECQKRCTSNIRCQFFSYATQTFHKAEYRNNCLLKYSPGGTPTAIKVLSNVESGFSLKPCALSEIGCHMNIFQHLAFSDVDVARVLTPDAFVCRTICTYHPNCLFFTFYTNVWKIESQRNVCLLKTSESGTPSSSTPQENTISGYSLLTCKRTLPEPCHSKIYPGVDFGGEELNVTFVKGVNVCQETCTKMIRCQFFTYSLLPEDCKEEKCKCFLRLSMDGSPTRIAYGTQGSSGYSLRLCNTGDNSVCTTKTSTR
# Sequence of Plasma kallikrein (P03952 391-638 limits assumed): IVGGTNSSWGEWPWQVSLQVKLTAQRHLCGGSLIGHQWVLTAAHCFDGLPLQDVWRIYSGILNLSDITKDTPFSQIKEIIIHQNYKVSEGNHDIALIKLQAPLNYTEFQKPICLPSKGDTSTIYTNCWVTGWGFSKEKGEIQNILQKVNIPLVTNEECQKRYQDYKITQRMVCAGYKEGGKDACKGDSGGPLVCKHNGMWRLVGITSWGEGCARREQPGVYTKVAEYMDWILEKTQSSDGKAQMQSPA
# Sequence of Tissue-type plasminogen activator (P00750 whole entry): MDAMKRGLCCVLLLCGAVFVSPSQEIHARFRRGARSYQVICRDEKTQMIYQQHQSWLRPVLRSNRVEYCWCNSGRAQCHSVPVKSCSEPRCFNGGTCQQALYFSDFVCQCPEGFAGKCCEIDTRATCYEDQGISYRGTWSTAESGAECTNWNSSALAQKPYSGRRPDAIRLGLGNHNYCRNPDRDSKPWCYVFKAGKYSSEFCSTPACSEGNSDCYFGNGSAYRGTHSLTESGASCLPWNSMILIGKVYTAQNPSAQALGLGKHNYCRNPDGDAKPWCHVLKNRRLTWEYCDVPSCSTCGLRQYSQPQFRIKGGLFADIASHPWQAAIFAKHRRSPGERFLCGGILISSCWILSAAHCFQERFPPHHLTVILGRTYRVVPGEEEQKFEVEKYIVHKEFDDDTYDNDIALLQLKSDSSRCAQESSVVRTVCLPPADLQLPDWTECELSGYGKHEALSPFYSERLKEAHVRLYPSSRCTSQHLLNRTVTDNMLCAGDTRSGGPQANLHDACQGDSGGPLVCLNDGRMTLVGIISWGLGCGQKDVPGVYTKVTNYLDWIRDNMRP
# Sequence of Coagulation factor XI (P03951 19-387 limits assumed): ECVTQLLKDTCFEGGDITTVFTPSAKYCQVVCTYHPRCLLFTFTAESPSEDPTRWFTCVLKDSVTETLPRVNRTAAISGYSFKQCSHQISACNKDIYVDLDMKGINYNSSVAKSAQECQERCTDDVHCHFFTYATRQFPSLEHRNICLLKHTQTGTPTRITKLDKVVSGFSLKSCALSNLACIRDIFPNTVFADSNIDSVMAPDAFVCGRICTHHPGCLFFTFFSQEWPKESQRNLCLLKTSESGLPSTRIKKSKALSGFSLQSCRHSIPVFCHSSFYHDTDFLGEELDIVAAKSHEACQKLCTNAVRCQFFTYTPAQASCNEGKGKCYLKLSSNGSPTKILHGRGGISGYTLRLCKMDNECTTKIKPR
# Sequence of Coagulation factor XI (P03951 388-625 limits assumed): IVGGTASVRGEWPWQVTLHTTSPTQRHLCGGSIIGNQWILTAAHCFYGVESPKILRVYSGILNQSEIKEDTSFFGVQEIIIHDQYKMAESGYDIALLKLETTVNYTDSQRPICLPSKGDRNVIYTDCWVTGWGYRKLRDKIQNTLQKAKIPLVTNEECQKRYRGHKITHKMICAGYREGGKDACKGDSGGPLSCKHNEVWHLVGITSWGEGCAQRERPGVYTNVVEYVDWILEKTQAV
SMILES,Ki (Coagulation factor XII) [µM],Ki (Plasminogen) [µM],further results
C[C@@H]1NC(=O)[C@@H]2CCCN2C(=O)[C@@H]2CCCN2C(=O)[C@@H]2CSCc3cc(cc(c3)CSC[C@H](NC(=O)[C@@H](N)CO)C(=O)NCC(=O)NCC(=O)N[C@@H](CCCNC(=N)N)C(=O)N3CCC[C@H]3C(=O)N2)CSC[C@@H](C(=O)N[C@@H](CCCCN)C(=O)O)NC(=O)[C@H](Cc2ccc(O)cc2)NC1=O (H-SCGGRPCPPAYCK-OH; linker 2-7-12 via TBMB),3.1,8.3,Ki [1]: > 120 µM; Ki (Coagulation factor XI): > 120 µM; Ki (Plasma kallikrein): > 120 µM; Ki [2]: > 120 µM; Ki (Prothrombin): > 120 µM; Ki (Serine protease 1): > 120 µM
CC(C)[C@H](N)C(=O)N[C@@H](CS)C(=O)N[C@H](C(=O)N[C@@H](CCC(N)=O)C(=O)N[C@@H](CCCCN)C(=O)N[C@@H](Cc1ccccc1)C(=O)N[C@@H](CS)C(=O)N[C@@H](Cc1c[nH]c2ccccc12)C(=O)N[C@@H](CCCNC(=N)N)C(=O)NCC(=O)N[C@@H](Cc1c[nH]c2ccccc12)C(=O)N[C@@H](CS)C(=O)N1CCC[C@H]1C(=O)O)C(C)C (H-VCVQKFCWRGWCP-OH),> 75,,
CC(C)C[C@H](NC(=O)[C@H](CS)NC(=O)[C@H](Cc1ccc(O)cc1)NC(=O)[C@@H](NC(=O)[C@H](CCC(N)=O)NC(=O)[C@@H]1CCCN1C(=O)[C@H](CS)NC(=O)[C@@H]1CCCN1C(=O)[C@H](CCCNC(=N)N)NC(=O)[C@H](C)NC(=O)[C@H](CC(=O)O)NC(=O)[C@H](CS)NC(=O)[C@H](C)N)[C@@H](C)O)C(=O)O (H-ACDARPCPQTYCL-OH),20.5,> 120,
C[C@@H]1NC(=O)[C@@H]2CCCN2C(=O)[C@@H]2CCCN2C(=O)[C@@H]2CSCc3cc(cc(c3)CSC[C@@H](C(=O)NCC(=O)O)NC(=O)[C@H](Cc3ccc(O)cc3)NC1=O)CSC[C@H](NC(=O)CN)C(=O)NCC(=O)NCC(=O)N[C@@H](CCCN=C(N)N)C(=O)N1CCC[C@H]1C(=O)N2 (H-GCGGRPCPPAYCG-OH; linker 2-7-12 via TBMB),1.2,> 120,Ki [1]: > 120 µM; Ki (Coagulation factor XI): > 120 µM; Ki (Plasma kallikrein): > 120 µM; Ki [2]: > 120 µM; Ki (Prothrombin): > 120 µM; Ki (Serine protease 1): > 120 µM
C[C@@H]1NC(=O)[C@@H]2CCCN2C(=O)[C@@H]2CCCN2C(=O)[C@@H]2CSCc3cc(cc(c3)CSC[C@H](NC(=O)[C@@H](N)CO)C(=O)NCC(=O)NCC(=O)N[C@@H](CCCNC(=N)N)C(=O)N3CCC[C@H]3C(=O)N2)CSC[C@@H](C(=O)NCC(N)=O)NC(=O)[C@H](Cc2ccc(O)cc2)NC1=O (H-SCGGRPCPPAYCG-NH2; linker 2-7-12 via TBMB),,4.3,
CC(C)C[C@H](NC(=O)[C@@H]1CCCN1C(=O)[C@H](CS)NC(=O)[C@@H]1CCCN1C(=O)[C@H](CCCN=C(N)N)NC(=O)[C@H](C)NC(=O)[C@H](C)NC(=O)[C@H](CS)NC(=O)CN)C(=O)N[C@H](C(=O)N[C@@H](C)C(=O)N[C@@H](CS)C(=O)N[C@@H](Cc1c[nH]c2ccccc12)C(=O)O)[C@@H](C)O (H-GCAARPCPLTACW-OH),33.5,> 120,
CSCC[C@H](NC(=O)[C@@H]1CCCN1C(=O)[C@H](CS)NC(=O)[C@@H]1CCCN1C(=O)[C@H](CCCN=C(N)N)NC(=O)CNC(=O)[C@H](CC(C)C)NC(=O)[C@H](CS)NC(=O)CN)C(=O)N[C@@H](C)C(=O)N[C@@H](Cc1ccc(O)cc1)C(=O)N[C@@H](CS)C(=O)N[C@@H](CO)C(=O)O (H-GCLGRPCPMAYCS-OH),5,> 120,
C[C@@H]1NC(=O)[C@@H]2CCCN2C(=O)[C@@H]2CCCN2C(=O)[C@@H]2CSCc3cc(cc(c3)CSC[C@@H](C(=O)NCC(=O)O)NC(=O)[C@H](Cc3ccc(O)cc3)NC1=O)CSC[C@H](NC(=O)CN)C(=O)NCC(=O)NCC(=O)N[C@@H](CCCNC(=N)N)C(=O)N1CCC[C@H]1C(=O)N2 (H-GCGGRPCPPAYCG-OH; linker 2-7-12 via TBMB),,,Activity [3]: 95%; inhibition [4]: Dose-dependent effect; Activity [5]: 89%; Activity [6]: 70%; Activity [7]: 42%; inhibition (Plasma): Dose-dependent effect; Activity [8]: 51%; Activity [9]: 20%
CC(C)C[C@H](NC(=O)[C@H](CCCNC(=N)N)NC(=O)[C@H](Cc1ccccc1)NC(=O)[C@H](C)NC(=O)[C@H](CS)NC(=O)CNC(=O)[C@H](CCC(N)=O)NC(=O)[C@@H](NC(=O)[C@@H](NC(=O)[C@H](CS)NC(=O)[C@@H](N)[C@@H](C)O)[C@@H](C)O)[C@@H](C)O)C(=O)N[C@@H](CS)C(=O)N[C@@H](CO)C(=O)O (H-TCTTQGCAFRLCS-OH),> 75,,
CC(C)C[C@H](NC(=O)[C@H](C)NC(=O)[C@H](CC(C)C)NC(=O)[C@@H]1CCCN1C(=O)[C@H](CS)NC(=O)[C@@H]1CCCN1C(=O)[C@H](CCCNC(=N)N)NC(=O)[C@H](C)NC(=O)[C@H](Cc1c[nH]c2ccccc12)NC(=O)[C@H](CS)NC(=O)CN)C(=O)N[C@@H](CS)C(=O)N[C@@H](CCC(N)=O)C(=O)O (H-GCWARPCPLALCQ-OH),10.2,> 120,

# More lines, main results first:
Ki (Coagulation factor XII) [µM],Ki (Plasminogen) [µM],SMILES,further results
7.8,3.3,N=C(N)NCCC[C@H](NC(=O)CNC(=O)[C@H](CO)NC(=O)[C@H](CS)NC(=O)[C@@H](N)CO)C(=O)N[C@@H](CCCNC(=N)N)C(=O)N[C@@H](CS)C(=O)N1CCC[C@H]1C(=O)N1CCC[C@H]1C(=O)N[C@@H](CO)C(=O)N[C@@H](Cc1ccc(O)cc1)C(=O)N[C@@H](CS)C(=O)N[C@@H](CCCCN)C(=O)O [SCSGRRCPPSYCK] (H-SCSGRRCPPSYCK-OH),
4.7,118,C[C@H](NC(=O)[C@H](CC(N)=O)NC(=O)[C@H](CS)NC(=O)[C@@H](N)CCC(N)=O)C(=O)N[C@@H](CCCNC(=N)N)C(=O)N1CCC[C@H]1C(=O)N[C@@H](CS)C(=O)N1CCC[C@H]1C(=O)N[C@@H](CO)C(=O)N[C@@H](CO)C(=O)N[C@@H](Cc1ccc(O)cc1)C(=O)N[C@@H](CS)C(=O)N[C@@H](CCCNC(=N)N)C(=O)O (H-QCNARPCPSSYCR-OH),
5,> 120,CSCC[C@H](NC(=O)[C@H](CS)NC(=O)CN)C(=O)NCC(=O)N[C@@H](CCCNC(=N)N)C(=O)N1CCC[C@H]1C(=O)N[C@@H](CS)C(=O)N1CCC[C@H]1C(=O)N[C@H](C(=O)N[C@@H](CO)C(=O)N[C@@H](Cc1ccc(O)cc1)C(=O)N[C@@H](CS)C(=O)N[C@@H](Cc1ccccc1)C(=O)O)C(C)C (H-GCMGRPCPVSYCF-OH),
3.1,8.3,C[C@H](NC(=O)[C@@H]1CCCN1C(=O)[C@@H]1CCCN1C(=O)[C@H](CS)NC(=O)[C@@H]1CCCN1C(=O)[C@H](CCCN=C(N)N)NC(=O)CNC(=O)CNC(=O)[C@H](CS)NC(=O)[C@@H](N)CO)C(=O)N[C@@H](Cc1ccc(O)cc1)C(=O)N[C@@H](CS)C(=O)N[C@@H](CCCCN)C(=O)O (H-SCGGRPCPPAYCK-OH),
11.2,14.2,CC(C)C[C@H](NC(=O)[C@@H]1CCCN1C(=O)[C@H](CS)NC(=O)[C@@H]1CCCN1C(=O)[C@H](CCCNC(=N)N)NC(=O)CNC(=O)[C@H](Cc1cnc[nH]1)NC(=O)[C@H](CS)NC(=O)CN)C(=O)N[C@@H](CCC(N)=O)C(=O)N[C@@H](Cc1ccc(O)cc1)C(=O)N[C@@H](CS)C(=O)N[C@@H](CCCCN)C(=O)O (H-GCHGRPCPLQYCK-OH),
